In PubChem BioAssay (NCI) one finds TGI data, which are given here for eleven compounds.

What all share (experiment): NCI tumour cell line growth inhibition, 48 h
Assay [1] has as its system SK-MEL-28 melanoma.
The test system of assay [2] is TK-10 renal.
For assay [3], the system named is OVCAR-3 ovarian.
Assay [4] deals with COLO 205 colon.
Assay [5] relates to SNB-75 CNS.
The test system of assay [6] is HCC-2998 colon.
In assay [7] the test system is UACC-62 melanoma.
For assay [8], the system named is NCI/ADR-RES ovarian.
In assay [9] the test system is BT-549 breast.
Assay [10] relates to OVCAR-5 ovarian.

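Values below derive from 48-hour exposures of cells grown in 96-well plates, with endpoints linearly interpolated between the two concentrations bracketing the appropriate inhibition level. The concentration for full growth arrest is given as TGI.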

With `COC(=O)c1c(C#C[Si](C)(C)C)c(C#C[Si](C)(C)C)c(C#C[Si](C)(C)C)c(C#C[Si](C)(C)C)c1C(=O)OC`, the TGI in assay [1], in [2], in assay [3], in assay [4], in assay [5] and in [6] was over 100 µM each time. For the same compound, the TGI in assay [7], in assay [8], in assay [9] and in [10] was over 100 µM each time.

On to `C/C(=C\c1ccccc1)C(=O)NCc1ccc(C(=O)NCCc2c[nH]c3ccccc23)cc1`, for which the TGI in [1] was over 100 µM; in assay [2] it was over 100 µM; in [3], over 100 µM; in assay [4], over 100 µM; in assay [5] it was over 100 µM; in assay [6] it was 96.3 µM. Also, the TGI in assay [7] is 53.7 µM; in [8], over 100 µM; in assay [9] it was over 100 µM; in [10] it was over 100 µM.

Consider `CC1(C)O[C@@H](CP(c2cccc3ccccc23)c2cccc3ccccc23)[C@H](CP(c2cccc3ccccc23)c2cccc3ccccc23)O1`, for which the TGI in assay [1], in assay [2], in assay [3], in assay [4], in assay [5] and in assay [6] was over 100 µM in each case. Also, the TGI in [7], in [8], in assay [9] and in assay [10] was over 100 µM each time.

As to `O=C(NCCCCNCCCNC(=O)OCc1ccccc1)OCc1ccccc1`, the TGI in [1] was 40 µM; in assay [2], over 100 µM; in assay [3], over 100 µM; in [4], 33.8 µM; in assay [5], 89.4 µM; in assay [6] it was 38.7 µM. Further, the TGI in [7] is 37.1 µM; in assay [8] it was over 100 µM; in assay [9], over 100 µM; in [10] it was over 100 µM.

For the compound `Cc1nnc(CC#N)n1NC(=O)CC#N`, the TGI in assay [1], in assay [2], in [3], in assay [4], in [5] and in assay [6] was over 100 µM each time. For the same compound, the TGI in assay [7], in [8], in assay [9] and in assay [10] was over 100 µM each time.

In the case of `OC(O)(C(F)(F)F)C(F)(F)F`, the TGI in assay [1], in assay [2], in [3], in assay [4], in assay [5] and in assay [6] was over 100 µM throughout. Further, the TGI in [7], in assay [8], in [9] and in assay [10] was over 100 µM in each case.

For the compound `CCC1CCC2c3c([nH]c4ccccc34)C3C(=O)N(c4ccc(OC)cc4)C(=O)C3C2C1` (stereo not given), the TGI in assay [1] was over 100 µM; in assay [2], 85.8 µM; in [3], 41.9 µM; in assay [4] it was over 100 µM; in [5] it was 41.1 µM; in assay [6], over 100 µM. The TGI in [7], in assay [8] and in assay [9] was over 100 µM each time.

On to `N#Cc1c(C#N)c(-c2ccccc2)n(/N=C\c2ccccc2)c1N`, for which the TGI in assay [2] was over 100 µM; in [3], 48.1 µM; in assay [4] it was 72 µM; in assay [5] it was 74.2 µM; in assay [6], 89.9 µM; in assay [7], 41.5 µM. Moreover, the TGI in [8] was 52.5 µM; in assay [9], over 100 µM; in assay [10] it was over 100 µM.

For the compound `CC1(C)CC(=O)C(=CN2C(=O)CNC2=S)C(=O)C1`, the TGI in assay [2], in [3], in [4], in [5], in assay [6] and in assay [7] was over 100 µM in each case. In addition, the TGI in assay [8], in assay [9] and in assay [10] was over 100 µM throughout.

`O=C(/C=C/c1ccccc1)CCc1c(O)c2ccccc2oc1=O`: the TGI in assay [1], in assay [3], in [4], in assay [5], in assay [6] and in assay [7] was over 100 µM in each case. Besides, the TGI in assay [8], in [9] and in [10] was over 100 µM in each case.

For `CC(C)CC(NC(=O)C(COc1ccc([N+](=O)[O-])cc1)Cc1ccccc1)C(=O)Nc1ccccc1` (stereo not given), the TGI was 50.3 µM in assay [2]; over 100 µM in assay [3]; over 100 µM in assay [4]; 7.84 µM in assay [5]; 80.2 µM in assay [6]; 30.9 µM in assay [7]. In addition, the TGI in [8] is 43.3 µM; in assay [9] it was 29.7 µM; in [10] it was over 100 µM.
